Results as given in patent US7060681B2, “Compositions and methods for use of bioactive agents derived from sulfated and sulfonated amino acids” (Ecole Polytechnique Federale de Lausanne (EPFL), priority 2001, dated 2006).
Ends that are not written are not given here. * marks the point of attachment. SO3 = sulfate on the tyrosine hydroxyl group, O=S(=O)(O)*

Assays:
VEGF = molecular target: T1, VEGF (Homo sapiens, UniProt P15692); test: Dissociation constant (KD) by surface plasma resonance (SPR); assay type: binding; settings: ± standard deviation
T1 sequence (P15692 27-191 isoform P15692-4): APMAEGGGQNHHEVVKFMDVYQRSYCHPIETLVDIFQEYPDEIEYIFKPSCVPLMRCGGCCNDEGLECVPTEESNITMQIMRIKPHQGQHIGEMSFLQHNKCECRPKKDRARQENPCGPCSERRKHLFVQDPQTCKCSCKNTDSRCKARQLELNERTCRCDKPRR
From the text: The sequence from the highest ranked bead from the first library of Example 1, was synthesized as SY(SO3)DY(SO3)G (SEE SEQ ID NO: 17), and the peptide Y(SO3)Y(SO3)GGY(SO3)DY(SO3) (SEE SEQ ID NO: 14) from the library of this Example were both synthesized independently and the dissociation constant (KD) determined by surface plasma resonance (SPR). The peptides were compared to suramin, a known heparin mimic that inhibits angiogenesis. […] Using SPR, there was no detectible binding of the analogous desulfated peptides to VEGF.

VEGF165 = molecular target: T2, VEGF165 (Homo sapiens, UniProt P15692); test: Colorimetric competitive bead assay with biotinylated VEGF165 in presence of heparin; assay type: binding; settings: about 0.25 nM biotinylated VEGF165; 1 or 10 equivalents of heparin
T2 construct: made in house; host or cells: E. coli AD494 (DE3)pLysS
T2 sequence (P15692 27-191 isoform P15692-4): T1 sequence (P15692 27-191 isoform P15692-4)
Method: A colorimetric assay was used to screen the library. The assay employed two different precipitating, developing dyes. In this way, beads that bound VEGF165 selectively and through the sulfate functionality could be determined. A portion of the library (2–3 copies) was swelled with H2O and rinsed 3 times with TBS. The resin was subjected overnight to 0.1% albumin and 0.2% Tween in Tris buffered saline (TBS, blocking buffer) and then rinsed with TBS (2×) prior to adding 1 mL streptavidin alkaline phosphatase (diluted 1:1000 from a 1 mg/mL solution) and shaking for 2 hours. The resin was rinsed with TBS (5×) and 200 μL of 5-bromo-4-chloro-3-indoylphosphate p-toluidine salt/nitro blue tetrazolium chloride (BCIP/NBT) reagent was added to develop a blue/black color where the streptavidin alkaline phosphatase was present. Nonspecific adsorption of the streptavidin alkaline phosphatase was detected as blue/black stained beads. After 15 minutes, the resin was rinsed with TBS (5×) prior to adding 100 μL of about 0.25 nM of biotinylated VEGF165 in the presence or absence of 1 or 10 equivalents of heparin sodium salt (isolated from porcine intestinal mucosa) in 400 μL of blocking buffer. The mixture was shaken overnight, the solution removed, the resin washed with TBS (6×), and 1 mL streptavidin alkaline phosphatase (diluted 1:1000 from a 1 mg/mL solution) was added. […]

Row | Compound | Kd (VEGF) [µM] | Binding of VEGF165 to peptide bead in the presence of heparin (in words) (VEGF165)
1 | Cc1ccc(C(=O)Nc2ccc(S(=O)(=O)O)c3cc(S(=O)(=O)O)cc(S(=O)(=O)O)c23)cc1NC(=O)c1cccc(NC(=O)Nc2cccc(C(=O)Nc3cc(C(=O)Nc4ccc(S(=O)(=O)O)c5cc(S(=O)(=O)O)cc(S(=O)(=O)O)c45)ccc3C)c2)c1 [Suramin, suramin] | 340 | –
2 | Y(SO3)Y(SO3)GGY(SO3)DY(SO3) (not fully specified (N-terminus); printed as Y(SO3)Y(SO3)GGY(SO3)DY(SO3)) | – | bound
